# In patent publication US20050118109A1, “Method for treating lung diseases associated with ventilation-perfusion mismatches” (priority 2003, published 2005):
# Assays:
# [1] = system: patient with chronic bronchitis with V/Q-mismatch; test: Inhalation of VIP by patient No. 4: chronic bronchitis with V/Q-mismatch, no bronchial obstruction; type: in vivo, human
# [2] = system: arthritis in an experimental model; settings: treatment with VIP; cited from earlier work
# [3] = system: pulmonary vascular system; settings: in vivo; cited from earlier work
# Type I binding sites = molecular target: T1, Type I binding sites (Homo sapiens, UniProt P41586); settings: cited from earlier work
# T1 sequence (P41586 21-468): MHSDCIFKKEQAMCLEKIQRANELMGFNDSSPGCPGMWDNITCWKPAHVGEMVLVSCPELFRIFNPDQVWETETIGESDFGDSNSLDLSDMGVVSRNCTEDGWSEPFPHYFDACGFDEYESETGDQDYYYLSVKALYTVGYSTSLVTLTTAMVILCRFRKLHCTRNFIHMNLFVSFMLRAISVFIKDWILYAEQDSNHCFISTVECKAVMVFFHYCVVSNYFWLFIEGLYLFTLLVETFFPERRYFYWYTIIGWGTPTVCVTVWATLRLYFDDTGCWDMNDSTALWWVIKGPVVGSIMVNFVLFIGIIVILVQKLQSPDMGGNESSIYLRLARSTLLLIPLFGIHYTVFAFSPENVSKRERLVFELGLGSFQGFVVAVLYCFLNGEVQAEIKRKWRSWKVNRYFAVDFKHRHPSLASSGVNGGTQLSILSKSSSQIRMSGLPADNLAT
# [4] = patient No. 4, after 1 and 2 days of inhalation
substance,measurement,setting,value
His-Ser-Asp-Ala-Val-Phe-Thr-Asp-Asn-Tyr-Thr-Arg-Leu-Arg-Lys-Gln-Met-Ala-Val-Lys-Lys-Tyr-Leu-Asn-Ser-Ile-Leu-Asn [VIP],pulmonary gas exchange in lung function analysis,[1]; [4],completely normal pulmonary gas exchange
same,severe decrease of paO2 caused by V/Q-mismatch,[1]; [4],significantly ameliorated
same,V/Q-mismatch,"[1]; patient No. 4, after inhalation of VIP",totally removed
same,incidence and severity of arthritis,[2],reduce significantly
same,joint swelling and destruction of cartilage and bone,[2],completely abrogating
same,resistance in the pulmonary vascular system,[3],decrease the resistance
same,affinity for type I binding sites,Type I binding sites,much lower affinity
